Format in all cases: functional
Test [1] concerns the target T1, High affinity choline transporter 1 (Homo sapiens, UniProt Q9GZV3).
T1 sequence (Q9GZV3 whole entry): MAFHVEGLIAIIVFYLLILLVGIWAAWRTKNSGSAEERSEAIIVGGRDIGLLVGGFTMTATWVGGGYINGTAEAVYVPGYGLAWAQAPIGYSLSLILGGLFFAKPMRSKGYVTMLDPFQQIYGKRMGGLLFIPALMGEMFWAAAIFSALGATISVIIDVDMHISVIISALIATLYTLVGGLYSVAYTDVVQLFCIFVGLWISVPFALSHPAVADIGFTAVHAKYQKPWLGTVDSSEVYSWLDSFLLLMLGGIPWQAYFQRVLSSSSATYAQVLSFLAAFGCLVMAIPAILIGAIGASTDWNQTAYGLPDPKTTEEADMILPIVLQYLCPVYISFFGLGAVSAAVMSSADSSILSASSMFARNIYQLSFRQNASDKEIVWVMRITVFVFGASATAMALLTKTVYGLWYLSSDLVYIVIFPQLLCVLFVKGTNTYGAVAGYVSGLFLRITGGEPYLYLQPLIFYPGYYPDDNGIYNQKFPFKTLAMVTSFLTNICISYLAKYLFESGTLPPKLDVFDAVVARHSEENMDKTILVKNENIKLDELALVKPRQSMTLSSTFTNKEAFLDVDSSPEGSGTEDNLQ
Briefly: CHT inhibitors, dose response, cell-based, 5-point CRC, membrane potential dye (AID 504840).

For test [2], the target named is T1, High affinity choline transporter 1. Briefly: CHT inhibitors, dose response, cell-based, 10-point CRC, membrane potential dye (AID 588401).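 Also: membrane potential dye fluorescence of choline-evoked depolarization via CHT.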
The nature of test [3]: Luminescence Cell-Based Dose Retest to Confirm Inhibitors of Cancer Stem Cells. [Related pubchem assays (depositor defined):AID2717, AID2721]. The conditions noted are these: Homo sapiens.
For test [4], the target named is T2, Ubiquitin-conjugating enzyme E2 N (Homo sapiens, UniProt P61088).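 Also: Dose-response confirmation in a TR-FRET assay detecting UBC13-driven polyubiquitin chain formation, inhibition measured.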
T2 sequence (P61088 whole entry): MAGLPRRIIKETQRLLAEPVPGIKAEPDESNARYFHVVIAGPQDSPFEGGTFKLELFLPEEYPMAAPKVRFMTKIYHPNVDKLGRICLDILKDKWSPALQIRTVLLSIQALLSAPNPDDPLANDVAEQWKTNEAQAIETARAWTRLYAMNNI

Test [5] deals with T3, Multidrug resistance protein CDR2 (Candida albicans (strain SC5314 / ATCC MYA-2876) (Yeast), UniProt P78595). Description: CaCDR2 efflux pump inhibitors in yeast, dose response, S. cerevisiae AD1-8u, singleplex, Cherry Pick1 hits (AID 588604).
T3 sequence (P78595 whole entry): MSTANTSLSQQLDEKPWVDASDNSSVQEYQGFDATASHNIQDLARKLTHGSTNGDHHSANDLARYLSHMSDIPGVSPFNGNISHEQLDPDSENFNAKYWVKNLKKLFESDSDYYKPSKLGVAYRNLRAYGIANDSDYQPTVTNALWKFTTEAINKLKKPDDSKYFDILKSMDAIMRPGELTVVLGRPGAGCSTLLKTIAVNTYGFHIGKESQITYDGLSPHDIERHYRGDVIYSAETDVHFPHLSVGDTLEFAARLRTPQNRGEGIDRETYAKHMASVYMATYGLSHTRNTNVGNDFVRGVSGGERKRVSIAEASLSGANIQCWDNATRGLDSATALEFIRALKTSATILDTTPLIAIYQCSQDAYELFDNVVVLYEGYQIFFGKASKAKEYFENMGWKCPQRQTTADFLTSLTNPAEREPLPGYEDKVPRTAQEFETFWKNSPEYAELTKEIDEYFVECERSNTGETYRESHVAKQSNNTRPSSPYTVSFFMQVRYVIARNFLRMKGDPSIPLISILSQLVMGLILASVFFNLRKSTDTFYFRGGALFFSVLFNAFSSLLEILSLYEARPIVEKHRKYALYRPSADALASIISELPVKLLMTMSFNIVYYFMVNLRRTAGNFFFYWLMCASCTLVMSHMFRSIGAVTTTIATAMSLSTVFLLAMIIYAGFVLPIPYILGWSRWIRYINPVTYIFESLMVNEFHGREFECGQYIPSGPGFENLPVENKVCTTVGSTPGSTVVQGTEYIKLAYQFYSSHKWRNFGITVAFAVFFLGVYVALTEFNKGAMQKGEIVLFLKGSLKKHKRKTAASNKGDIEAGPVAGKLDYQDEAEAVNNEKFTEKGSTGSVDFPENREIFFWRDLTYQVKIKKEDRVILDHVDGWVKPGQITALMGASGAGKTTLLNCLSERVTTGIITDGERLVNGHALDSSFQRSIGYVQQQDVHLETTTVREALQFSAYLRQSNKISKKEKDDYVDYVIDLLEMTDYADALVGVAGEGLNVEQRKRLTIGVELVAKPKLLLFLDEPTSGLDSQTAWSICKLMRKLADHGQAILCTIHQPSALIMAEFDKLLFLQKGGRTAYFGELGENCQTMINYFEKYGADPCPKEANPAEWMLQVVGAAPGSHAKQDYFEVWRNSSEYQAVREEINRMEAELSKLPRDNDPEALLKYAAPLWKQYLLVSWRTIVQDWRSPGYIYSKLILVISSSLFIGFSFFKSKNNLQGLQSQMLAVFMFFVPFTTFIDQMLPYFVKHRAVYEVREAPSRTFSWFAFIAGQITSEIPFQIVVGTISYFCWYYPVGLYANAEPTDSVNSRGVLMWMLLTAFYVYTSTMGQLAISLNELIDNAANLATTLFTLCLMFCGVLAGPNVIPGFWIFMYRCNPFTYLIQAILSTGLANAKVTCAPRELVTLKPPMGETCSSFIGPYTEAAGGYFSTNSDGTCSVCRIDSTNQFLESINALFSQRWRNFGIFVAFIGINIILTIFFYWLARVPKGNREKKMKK
Test [6] has as its target Multidrug resistance protein CDR1 (Candida albicans, UniProt P43071). Description: CaCdr1 efflux pump inhibitor potency, dose response, singleplex, Cherry Pick2 set (AID 623996). The note with it: read-out: EC50_MICROM.
For test [7], the target named is T3, Multidrug resistance protein CDR2. Briefly: CaCDR2 efflux pump inhibitors in yeast, dose response, S. cerevisiae AD1-8u, singleplex, Cherry Pick2 set (AID 623994). The note with it: read-out: EC50_MICROM.
For test [8], the target named is Benomyl/methotrexate resistance protein (Candida albicans, UniProt P28873). Briefly: CaMdr1 efflux pump inhibitor potency, dose response, singleplex, Cherry Pick2 set (AID 623992). The conditions noted are these: read-out: EC50_MICROM.
Benomyl/methotrexate resistance protein, sequence (P28873 whole entry): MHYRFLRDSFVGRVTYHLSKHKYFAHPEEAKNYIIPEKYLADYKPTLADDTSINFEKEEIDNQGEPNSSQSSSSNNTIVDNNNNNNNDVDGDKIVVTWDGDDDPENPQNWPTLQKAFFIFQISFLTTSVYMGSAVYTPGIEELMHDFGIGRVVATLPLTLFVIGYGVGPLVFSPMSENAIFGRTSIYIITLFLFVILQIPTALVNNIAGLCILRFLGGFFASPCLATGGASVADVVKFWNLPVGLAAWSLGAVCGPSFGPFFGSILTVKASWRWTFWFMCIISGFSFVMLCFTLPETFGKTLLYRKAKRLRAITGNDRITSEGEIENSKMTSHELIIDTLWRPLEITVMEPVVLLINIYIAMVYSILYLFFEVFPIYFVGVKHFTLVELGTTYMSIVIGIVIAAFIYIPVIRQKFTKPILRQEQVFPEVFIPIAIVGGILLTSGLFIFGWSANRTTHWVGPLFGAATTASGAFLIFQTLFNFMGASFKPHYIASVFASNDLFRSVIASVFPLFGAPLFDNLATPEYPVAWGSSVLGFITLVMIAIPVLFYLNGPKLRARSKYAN
The target in test [9] is Melanin-concentrating hormone receptor 1 (Homo sapiens, UniProt Q99705). Briefly: Late-stage fluorescence-based counterscreen for antagonists of the G-protein coupled receptor 7 (GPR7): cell-based dose response assay to identify antagonists of the melanin-concentrating hormone receptor 1 (MCHR1) Set 6. For orientation: The purpose of a counterscreen is to sort out artefacts and off-target activity.

The target of test [10] is Neuropeptides B/W receptor type 1 (Homo sapiens, UniProt P48145). Briefly: GPR7 antagonist potency, late-stage follow-up, cell-based, fluorescence, dose response, set 6 (AID 588583).
Neuropeptides B/W receptor type 1, sequence (P48145 whole entry): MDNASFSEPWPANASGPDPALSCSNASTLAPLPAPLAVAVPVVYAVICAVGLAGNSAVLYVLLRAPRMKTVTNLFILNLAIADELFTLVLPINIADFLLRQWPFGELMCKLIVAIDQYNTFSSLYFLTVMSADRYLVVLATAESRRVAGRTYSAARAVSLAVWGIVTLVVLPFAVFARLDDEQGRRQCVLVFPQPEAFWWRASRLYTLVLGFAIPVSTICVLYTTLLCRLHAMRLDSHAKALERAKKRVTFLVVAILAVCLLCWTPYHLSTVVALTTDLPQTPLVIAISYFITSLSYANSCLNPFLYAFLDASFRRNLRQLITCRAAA
The target in test [11] is ALK tyrosine kinase receptor (Homo sapiens, UniProt Q9UM73).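 Also: ALK tested as one member of a kinase panel screen.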
For test [12], the target named is Proto-oncogene tyrosine-protein kinase receptor Ret (Homo sapiens, UniProt P07949).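 Also: measured within a kinome-wide profiling panel, RET as the panel member.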
The target of test [13] is Tyrosine-protein kinase Lck (Homo sapiens, UniProt P06239).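 Also: lck was assayed as one member of a kinase panel.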
In test [14] the target is Tyrosine-protein kinase BTK (Homo sapiens, UniProt Q06187).
Test [15] addresses Serine/threonine-protein kinase TAO1 (Homo sapiens, UniProt Q7L7X3).
The target of another test is Focal adhesion kinase 1 (Homo sapiens, UniProt Q05397).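 Also: measured as one member of a kinome panel.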
Focal adhesion kinase 1, sequence (Q05397 whole entry): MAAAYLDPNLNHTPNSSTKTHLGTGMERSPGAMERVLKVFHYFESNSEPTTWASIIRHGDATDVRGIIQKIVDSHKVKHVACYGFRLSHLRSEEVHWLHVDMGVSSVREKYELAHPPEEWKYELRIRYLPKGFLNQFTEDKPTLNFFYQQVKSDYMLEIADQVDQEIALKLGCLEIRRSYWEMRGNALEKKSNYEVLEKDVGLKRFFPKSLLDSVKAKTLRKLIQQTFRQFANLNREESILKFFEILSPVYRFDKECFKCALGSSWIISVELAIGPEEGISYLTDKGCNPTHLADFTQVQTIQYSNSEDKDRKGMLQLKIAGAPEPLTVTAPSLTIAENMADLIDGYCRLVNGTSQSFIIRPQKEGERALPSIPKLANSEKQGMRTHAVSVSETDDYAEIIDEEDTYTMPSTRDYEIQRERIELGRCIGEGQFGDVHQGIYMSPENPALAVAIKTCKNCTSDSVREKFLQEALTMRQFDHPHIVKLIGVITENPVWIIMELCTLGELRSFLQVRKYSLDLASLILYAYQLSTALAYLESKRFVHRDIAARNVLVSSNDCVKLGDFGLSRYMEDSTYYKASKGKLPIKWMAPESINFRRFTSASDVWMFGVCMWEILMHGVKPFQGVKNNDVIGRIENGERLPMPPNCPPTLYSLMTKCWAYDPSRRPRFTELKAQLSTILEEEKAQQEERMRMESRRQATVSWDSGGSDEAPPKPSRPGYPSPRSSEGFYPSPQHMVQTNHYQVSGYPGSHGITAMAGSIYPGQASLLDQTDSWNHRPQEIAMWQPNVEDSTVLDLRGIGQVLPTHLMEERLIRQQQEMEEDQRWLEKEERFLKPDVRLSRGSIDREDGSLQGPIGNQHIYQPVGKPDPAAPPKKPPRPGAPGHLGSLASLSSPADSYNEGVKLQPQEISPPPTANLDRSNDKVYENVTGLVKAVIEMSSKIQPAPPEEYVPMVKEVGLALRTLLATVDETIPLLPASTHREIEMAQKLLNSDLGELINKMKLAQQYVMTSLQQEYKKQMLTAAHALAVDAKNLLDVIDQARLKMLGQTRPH
Test [16] deals with Platelet-derived growth factor receptor alpha (Homo sapiens, UniProt P16234). Briefly: Navigating the Kinome. Panel member name: PDGFRA.
The target in test [17] is Tyrosine-protein kinase Fyn (Homo sapiens, UniProt P06241).
The target of test [18] is Cyclin-dependent kinase 8 (Homo sapiens, UniProt P49336). Briefly: Navigating the Kinome. Panel member name: CDK8.
For test [19], the target named is Calcium/calmodulin-dependent protein kinase type II subunit alpha (Homo sapiens, UniProt Q9UQM7). Briefly: Navigating the Kinome. Panel member name: CAMK2A.
Calcium/calmodulin-dependent protein kinase type II subunit alpha, sequence (Q9UQM7 whole entry): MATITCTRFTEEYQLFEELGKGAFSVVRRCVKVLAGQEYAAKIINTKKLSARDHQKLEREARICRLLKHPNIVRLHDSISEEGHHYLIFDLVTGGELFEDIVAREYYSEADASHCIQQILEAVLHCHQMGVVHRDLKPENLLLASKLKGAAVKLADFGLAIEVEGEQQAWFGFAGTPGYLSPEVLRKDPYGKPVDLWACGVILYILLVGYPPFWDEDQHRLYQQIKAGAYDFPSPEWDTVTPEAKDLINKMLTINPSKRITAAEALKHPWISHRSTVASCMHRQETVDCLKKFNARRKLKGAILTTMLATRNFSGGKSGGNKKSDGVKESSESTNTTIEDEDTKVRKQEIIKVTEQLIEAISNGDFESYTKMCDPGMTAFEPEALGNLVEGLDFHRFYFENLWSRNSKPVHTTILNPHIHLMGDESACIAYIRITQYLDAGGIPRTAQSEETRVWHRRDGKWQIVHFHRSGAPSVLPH
Test [20] deals with Dual specificity tyrosine-phosphorylation-regulated kinase 1B (Homo sapiens, UniProt Q9Y463). Briefly: Navigating the Kinome. Panel member name: DYRK1B.
The target of test [21] is Glycogen synthase kinase-3 beta (Homo sapiens, UniProt P49841).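 Also: value comes from a broad kinome profiling panel, with GSK3B as the panel member.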
The target in test [22] is Cyclin-dependent kinase 9 (Homo sapiens, UniProt P50750).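 Also: value from the CDK9 entry of a kinome-spanning kinase panel.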

Activity calls are given as the source filed them.
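For AC50 in this document: cells exposed to compound for roughly 70 hours or longer before luminescence read.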

Serine/threonine-protein kinase TAO1, sequence (Q7L7X3 whole entry): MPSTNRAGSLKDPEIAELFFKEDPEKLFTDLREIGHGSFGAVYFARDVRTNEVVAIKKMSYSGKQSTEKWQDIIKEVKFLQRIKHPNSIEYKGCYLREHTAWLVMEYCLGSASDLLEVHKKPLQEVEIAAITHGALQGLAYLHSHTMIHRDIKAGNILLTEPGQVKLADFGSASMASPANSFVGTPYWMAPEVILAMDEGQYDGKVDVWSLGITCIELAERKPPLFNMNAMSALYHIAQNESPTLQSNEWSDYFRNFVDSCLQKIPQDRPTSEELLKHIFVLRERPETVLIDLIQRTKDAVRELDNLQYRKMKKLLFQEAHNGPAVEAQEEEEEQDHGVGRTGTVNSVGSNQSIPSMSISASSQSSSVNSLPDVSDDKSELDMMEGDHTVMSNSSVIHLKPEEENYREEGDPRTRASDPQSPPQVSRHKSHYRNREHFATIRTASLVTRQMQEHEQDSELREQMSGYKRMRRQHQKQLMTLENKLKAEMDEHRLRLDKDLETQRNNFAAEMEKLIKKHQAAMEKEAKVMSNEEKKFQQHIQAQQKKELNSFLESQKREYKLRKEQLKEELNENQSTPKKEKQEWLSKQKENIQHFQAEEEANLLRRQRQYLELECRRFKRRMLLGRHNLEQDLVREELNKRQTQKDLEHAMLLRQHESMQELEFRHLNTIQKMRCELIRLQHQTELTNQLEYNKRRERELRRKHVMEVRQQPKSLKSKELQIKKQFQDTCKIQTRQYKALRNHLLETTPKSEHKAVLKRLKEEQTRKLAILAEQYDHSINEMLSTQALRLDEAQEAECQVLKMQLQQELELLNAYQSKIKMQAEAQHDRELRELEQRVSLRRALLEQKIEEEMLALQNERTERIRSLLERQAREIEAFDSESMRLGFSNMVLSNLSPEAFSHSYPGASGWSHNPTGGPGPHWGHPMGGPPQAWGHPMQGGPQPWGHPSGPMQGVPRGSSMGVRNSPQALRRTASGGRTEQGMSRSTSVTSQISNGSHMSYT

As usually defined, the IC50 is the concentration that gives 50% inhibition. Consider `CC1=NOC(=O)/C1=C/c1ccc(O)c(Br)c1`, for which the IC50 in test [1] was 4.77 µM (active); in test [2], 3.98 µM (active).

What is called AC50 is the concentration at which the activity in the assay is half-maximal. As for `COc1ccc2sc(-c3ccccc3OC)c(-c3ccc(OCCN4CCCC4)cc3)c2c1`, in [3], the AC50 was 5.62 µM (active). Further, the IC50 in [4] is > 20 µM (inactive). Also, the EC50 in [5] is 0.87 µM (active); in test [6] it was 23.6 µM (active); in [7] it was 0.958 µM (active); in test [8], 50.2 µM (active).

Consider `N#CC(c1ccccc1)c1c(Cl)cnn(Cc2ccc3ccccc3c2)c1=O` (stereo not drawn), for which the IC50 in [9] and in [10] was 3.04 µM (active) each time.

As a reminder, the Ki is a dissociation constant, usually derived from enzyme kinetics or from competition with a known ligand. `CC(C)(C)c1cc(NC(=O)Nc2cccc3ccccc23)n(-c2cccc(C(=O)N(CCN)CCO)c2)n1`: the Ki in test [11] was > 6.31 µM (inactive); in test [12] it was 1.26 µM (active); in test [13], > 6.31 µM (inactive); in [14] it was > 6.31 µM (inactive); in test [15], 2.51 µM (active); on Focal adhesion kinase 1, > 6.31 µM (inactive). In addition, the Ki in [16] was 0.794 µM (active); in test [17], > 6.31 µM (inactive); in test [18] it was 3.16 µM (active); in test [19], > 7.94 µM (inactive).

In the case of `CC1c2cccn2CCN1Cc1nc2scc(-c3ccco3)c2c(=O)[nH]1` (stereo not drawn), the Ki was 2.51 µM (active) in [20], 3.16 µM (active) in test [21] and 1.58 µM (active) in [22].

Source of the values: ChEMBL document CHEMBL1201862, “PubChem BioAssay data set” (2004).
